Where a SMILES comes first, the peptide text is derived from it. [ ]: non-standard residue; d: D form. Dmt = Cc1cc(O)cc(C)c1C[C@H](N)C(=O)O
Columns and labels:
mice treated with MPTP = assay: MPTP animal model of Parkinson's Disease; format: in vivo; settings: MPTP 3 x 10 mg/kg, sacrificed one week later
Protocol: MPTP is a neurotoxin that selectively destroys striatal dopamine neurons and can be used as an animal model of Parkinson's Disease. MPP^+, a metabolite of MPTP, targets mitochondria, inhibits complex I of the electron transport chain and increases ROS production. MPP^+ is used in cell culture studied because cells are unable to metabolize MPTP to the active metabolite. MPTP is used for animal studies.
Three doses of MPTP (10 mg/kg) was given to mice (n=12) 2 h apart. SS-31 was administered 30 min before each MPTP injection, and at 1 h and 12 h after the last MPTP injection. Animals were sacrificed one week later and striatal brain regions were immunostained for tyrosine hydroxylase activity.
Three doses of MPTP (10 mg/kg) was given to mice (n=12) 2 h apart. SS-31 was administered 30 min before each MPTP injection, and at 1 h and 12 h after the last MPTP injection.
Animals were sacrificed one week later and dopamine, DOPAC and HVA levels were quantified by high pressure liquid chromatography.

[1] = tested on: C57BL/6 mice subjected to MCAO; assay: Infarct size, swelling and cerebral blood flow after MCAO; format: in vivo; settings: for reduction in infarct volume: 2 mg/kg i.p., 3 days after ischemia
Protocol: FIG. 32A-32F. Effect of SS-31 peptide on ischemia-induced infarct size and swelling in C57BL/6 mice. Shown are representative serial sections (1.2 mm apart) stained with Cresyl Violet from mice subjected to 30 min (A) and 20 min (B) MCAO and treated with vehicle (Veh) or SS-31 (2 mg/kg body weight) immediately after reperfusion, 6 h, 24 h, and 48 h.
To address whether SS-31-induced attenuation in GSH depletion is associated with neuroprotection, mice were subjected to 30 or 20 min MCAO and then treated with vehicle or SS-31 (2 mg/kg, i.p.) upon reperfusion) and at 6 h, 24 h, 48 h after MCAO. Infarct volumes and hemispheric swelling were determined at 3 days after ischemia.

[2] = tested on: G93A-SOD transfected murine neuroblastoma (N2A) cells; assay: H2O2-induced cell death (LDH release); format: cell-based; settings: SS-31 between 1 and 100 μM added 1 h after exposure to H2O2
Protocol: FIG. 24. Increased hydrogen peroxide (H2O2) sensitivity of G93A-SOD transfected murine neuroblastoma (N2A) cells as compared to wildtype SOD-transfected N2A cells after addition of 0.5 or 1 mM H2O2 for 1 h. Cell death was quantified by measurement of the percentage of H2O2-induced LDH release of total cellular LDH-content. […] Values are means+S.D., n=4-5, *p<0.1, **p<0.05, Student's t-test.

[3] = tested on: Mouse pancreatic islet cells; assay: tBHP oxidative damage in islet cells (TMRM, DCF); format: cell-based; settings: 25 μM tBHP, 1 nM SS-31
Protocol: Mouse pancreatic islet cells were untreated (a), or treated with 25 μM tBHP without or with 1 nM SS-31 (c). Mitochondrial potential was measured by TMRM (red) and reactive oxygen species were measured by DCF (green) using confocal microscopy.

SH-SY5Y cells [4] = assay: Mitochondrial function, MTT assay, after tBHP; format: cell-based, human; settings: tBHP 50-100 μM, 24 h
Protocol: FIG. 23A-23B. SS-31 protected against tBHP-induced mitochondrial viability. (A) SS-31 protected mitochondrial viability in N2A cells treated with tBHP for 24 h. Mitochondrial viability was evaluated using the MTT assay (*P<0.01 compared to untreated cells, *P<0.05, P<0.01 compared to tBHP alone). […]
Only viable mitochondria containing NADPH dehydrogenase activity are capable of cleaving MTT to the formazan. A 50 μM tBHP induced 50% loss of mitochondrial function in N2A cells (FIG. 23A, […]) and 30% loss of mitochondrial function in SH-SY5Y cells (FIG. 23B, P<0.01). […] Treatment of N2A cells with SS-31 alone had no effect on mitochondrial function.

SH-SY5Y cells [5] = assay: Cell viability, MTS assay, cells treated with tBHP; format: cell-based, human; settings: t-BHP 0.05-0.1 mM, 24 h
Protocol: Neuronal N2A and SH-SY5Y cells were plated in 96-well plate at a density of 1×10^4/well and allowed to grow for 2 days before treatment with t-butyl hydroperoxide (tBHP) (0.05-0.1 mM) with or without SS-31 (10^−12 M to 10^−9 M for 24 h. Cell death was assessed by a cell proliferation assay (MTS assay, Promega, Madison, Wis.).

N2A cells [6] = assay: Phosphatidylserine translocation, Annexin V and propidium iodide staining after tBHP; format: cell-based, murine; settings: 50 μM tBHP, 1 nM SS-31, 6 h
Protocol: FIG. 19A-19C. […] N2A cells were incubated with 50 μM tBHP for 6 h and stained with Annexin V and propidium iodide (PI). […] Combined staining with Annexin V and PI (red) indicate late apoptotic cells.
The translocation of phosphatidylserine from the inner leaflet of the plasma membrane to the outer leaflet is observed early in the initiation of apoptosis. This can be observed with Annexin V, a phospholipid binding protein with high affinity for phosphatidylserine.

[7] = tested on: islet cells isolated from mouse pancreas; assay: Islet isolation with SS-31 in isolation buffers (TMRM; annexin V/PI flow cytometry); format: cell-based; settings: SS-31 1 nM in all isolation buffers
Protocol: Pancreas was harvested from mice and islet cells were prepared according standard procedures. In some studies, SS-31 (1 nM) was added to all isolation buffers used throughout the isolation procedure. Mitochondrial potential was measured using TMRM (red) and visualized by confocal microscopy.
Pancreas was harvested from mice and islet cells were prepared according standard procedures. In some studies, SS-31 (1 nM) was added to all isolation buffers used throughout the isolation procedure. Apoptosis was ascertained by flow cytometry using annexin V and necrosis by propidium iodide.

N2A cells [8] = assay: tBHP-induced LDH release; format: cell-based, murine; settings: 100 μM tBHP
Protocol: FIG. 18A-18B. SS-31 reduced tBHP-induced LDH release in SH-SY5Y (A) and N2A (B) cells. Cells were treated with 100 μM tBHP alone, or with SS-31, for 24 h. *P<0.05, **P<0.01, ***P<0.001, compared to tBHP alone.
The loss of cell viability induced by 100 μM tBHP was accompanied by a significant increase in LDH release in SH-SY5Y (FIG. 18A) and N2A cell (FIG. 18B).

[9] = tested on: isolated mouse liver mitochondria; assay: H2O2 production by isolated mitochondria, luminol chemiluminescence; format: biochemical

Compound: Cc1cc(O)cc(C)c1C[C@H](NC(=O)[C@H](N)CCCNC(=N)N)C(=O)N[C@@H](CCCCN)C(=O)N[C@@H](Cc1ccccc1)C(N)=O [SS-31, D-Arg-2′6′-Dmt-Lys-Phe-NH2] (H-[dR][Dmt]KF-NH2; N-terminus assumed)
- loss of dopamine neurons (tyrosine hydroxylase immunostaining) (mice treated with MPTP): dose-dependently prevented loss
- striatal DOPAC levels (mice treated with MPTP): dose-dependently increased
- striatal HVA levels (mice treated with MPTP): dose-dependently increased
- striatal dopamine levels (mice treated with MPTP): dose-dependently increased
- reduction in infarct volume ([1]; 20 min ischemia): 30%
- reduction in infarct volume ([1]; 30 min ischemia): 24%
- hemispheric swelling ([1]; both 30 and 20 min ischemic paradigms): significantly attenuated
- H2O2-induced cell death [2]: significantly reduced
- oxidative damage caused by tBHP [3]: reduces oxidative damage
- tBHP-induced mitochondrial toxicity (MTT) (SH-SY5Y cells [4]): dose-dependently reduced
- concentration achieving complete protection against t-BHP (SH-SY5Y cells [5]): 1 nM
- t-BHP-induced cytotoxicity (SH-SY5Y cells [5]; concurrent treatment): dose-dependent reduction
- Annexin V-positive cells (N2A cells [6]): reduction
- propidium iodide staining (N2A cells [6]): no propidium iodide staining
- apoptosis (annexin V) [7]: reduces apoptosis
- mitochondrial potential (TMRM) [7]: improves mitochondrial potential
- viability [7]: increases viability
- LDH release (N2A cells [8]; 0.1 and 1 nM of SS-31): reduced significantly
- LDH release / tBHP-induced cytotoxicity (N2A cells [8]; 24 h): dose-dependent decrease

Compound: 2′,6′-Dmt-Arg-Phe-Lys-NH2 [SS-02]
- antimycin-induced increase in H2O2 production ([9]; antimycin 1 μM, peptide 1.0 μM): completely blocked
- amount of H2O2 production ([9]; basal, 10 μM): significantly reduced

— patent publication US9950026B2, “Methods for reducing oxidative damage” (Cornell Research Foundation, Inc., priority 2004, dated 2018)
